Measured values reported in patent US12612412B2, “Antiviral heterocyclic compounds” (Enanta Pharmaceuticals, Inc., priority 2021, dated 2026).

Assays:
[1] = system: recombinant HMPV CAN97-83 containing eGFP (MPV-GFP1); assay: HMPV antiviral assay Method-A (MPV-GFP1 eGFP fluorescence in Vero E6 cells); assay type: cell-based, Human metapneumovirus (HMPV); settings: human metapneumovirus, Vero C1008, 120 h, read-out: HMPV EC50
Summary of the method: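 Vero E6 cells in serum-free OptiMEM with 0.5 μg/mL TPCK-trypsin were infected with eGFP-expressing HMPV CAN97-83 at MOI 0.05, with 8-point twofold dilutions from 8 or 2 μM (0.5% DMSO). After 5 days at 32° C, eGFP fluorescence gave % inhibition versus infected untreated wells. EC50 came from four-parameter logistic fits.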

[2] = system: genotype A, "Long" strain RSV; assay: RSV-A assay (CPE protection in Hep-2 cells, ATPlite readout); assay type: cell-based, Human respiratory syncytial virus (HRSV); settings: human respiratory syncytial virus, genotype A “Long” strain RSV, MOI 0.1, CPE protection, read-out: Human RSV-A (“Long”)
Summary of the method: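 ATPlite luminescence (cellular ATP) served as the measure of cell health after 5 days of infection. Hep-2 cells at 8,000 per well received duplicate 2-fold compound dilutions plus virus at MOI 0.1, and EC50 was calculated from CPE protection.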

Row | Structure (SMILES) | EC50 [1] [nM] | EC50 [2] [nM]
1 | COC(=O)Nc1cc(C(=O)NC[C@](O)(c2cc3c(c(-c4ccc(F)cc4)n2)OC[C@]3(C)C(N)=O)C(F)(F)F)cc2cc(C)cnc12 [Example 210] | < 500 | < 200
2 | COc1cc(C(=O)NC[C@](O)(c2cc3c(c(-c4ccc(F)cc4)n2)OC[C@]3(C)C(N)=O)C(F)(F)F)cn2cc(C3CC3)nc12 [Example 217] | < 500 | < 200
3 | C[C@]1(C(N)=O)COc2c1cc([C@@](O)(CNC(=O)c1cc(NC(=O)NC3CC3)c3ncc(Cl)cc3c1)C(F)(F)F)nc2-c1ccc(F)cc1 [Example 218] | < 500 | < 200
4 | Cc1cnc2c(NC(=O)NC3CC3)cc(C(=O)NC[C@](O)(c3cc4c(c(-c5ccc(F)c(Cl)c5)n3)OC[C@]4(C)C(N)=O)C(F)(F)F)cc2c1 [Example 219] | < 500 | < 200
5 | C[C@]1(C(N)=O)COc2c1cc([C@@](O)(CNC(=O)c1cc(NC(=O)NC3CC3)c3ncc(Cl)cc3c1)C(F)(F)F)nc2-c1ccc(F)c(Cl)c1 [Example 220] | > 500 | < 200
6 | Cc1cnc2c(NC(=O)N3CCC3)cc(C(=O)NC[C@](O)(c3cc4c(c(-c5ccc(F)cc5)n3)OC[C@]4(C)C(N)=O)C(F)(F)F)cc2c1 [Example 221] | > 500 | < 200
7 | C[C@]1(C(N)=O)COc2c1cc([C@@](O)(CNC(=O)c1cc(NC(=O)N3CCC3)c3ncc(Cl)cc3c1)C(F)(F)F)nc2-c1ccc(F)cc1 [Example 222] | > 500 | < 200
8 | Cc1cnc2c(NC(N)=O)cc(C(=O)NC[C@](O)(c3cc4c(c(-c5ccc(F)cc5)n3)OC[C@]4(C)C(N)=O)C(F)(F)F)cc2c1 [Example 223] | > 500 | < 200
9 | C[C@]1(C(N)=O)COc2c1cc([C@@](O)(CNC(=O)c1cc(NC(N)=O)c3ncc(Cl)cc3c1)C(F)(F)F)nc2-c1ccc(F)cc1 [Example 224] | > 500 | < 200
10 | Cc1cnc2c(NC(=O)N3CCCC3)cc(C(=O)NC[C@](O)(c3cc4c(c(-c5ccc(F)cc5)n3)OC[C@]4(C)C(N)=O)C(F)(F)F)cc2c1 [Example 226] | > 500 | < 200
11 | CC[C@]1(C(N)=O)COc2c1cc([C@@](O)(CNC(=O)c1cc(OC)c3nn(C(F)F)cc3c1)C(F)(F)F)nc2-c1ccc(F)cc1 [Example 234] | < 500 | < 200
12 | CC[C@]1(C(N)=O)COc2c1cc([C@@](O)(CNC(=O)c1cc(OC3CC3)c3ncccc3c1)C(F)(F)F)nc2-c1ccc(F)cc1 [Example 235] | < 500 | < 200
13 | NC(=O)[C@@]1(C2CC2)COc2c1cc([C@@](O)(CNC(=O)c1cc(F)c3nc(N)sc3c1)C(F)(F)F)nc2-c1ccc(F)cc1 [Example 263] | < 500 | < 200
14 | COc1cc(C(=O)NC[C@](O)(c2cc3c(c(-c4ccc(F)cc4)n2)OC[C@@]3(C(N)=O)C2CC2)C(F)(F)F)cc2cc(C(F)(F)F)cnc12 [Example 265] | < 500 | < 200
15 | COc1cc(C(=O)NC[C@](O)(c2cc3c(c(-c4ccc(F)cc4)n2)OC[C@@]3(C(N)=O)C2CC2)C(F)(F)F)cc2cn(C(F)F)nc12 [Example 267] | < 500 | < 200
16 | COc1cc(C(=O)NC[C@](O)(c2cc3c(c(-c4ccc(F)cc4)n2)OC[C@@]3(C(N)=O)C2CC2)C(F)(F)F)cc2cccnc12 [Example 268] | > 500 | < 200
17 | NC(=O)[C@@]1(C2CC2)COc2c1cc([C@@](O)(CNC(=O)c1cc(OC3CC3)c3ncccc3c1)C(F)(F)F)nc2-c1ccc(F)cc1 [Example 270] | < 500 | < 200

Row | Structure (SMILES) | EC50 [1] [nM] | EC50 [2] [nM]
18 | COc1cc(C(=O)NC[C@](O)(c2cc3c(c(-c4ccc(F)cc4)n2)OC[C@@]3(C(N)=O)C2CC2)C(F)(F)F)cc2cn(C3CC3)nc12 [Example 280] | < 500 | < 200
19 | COc1cc(C(=O)NC[C@](O)(c2cc3c(c(-c4ccc(Cl)c(F)c4)n2)OC[C@]3(C)C(N)=O)C(F)(F)F)cc2cn(C(F)F)nc12 [Example 300] | < 500 | < 200
20 | COc1cc(C(=O)NC[C@](O)(c2cc3c(c(-c4ccc(Cl)c(F)c4)n2)OC[C@]3(C)C(N)=O)C(F)(F)F)cc2cc(C3CC3)nn12 [Example 301] | < 500 | < 200
21 | C[C@]1(C(N)=O)COc2c1cc([C@@](O)(CNC(=O)c1cc(F)c3nc(N)sc3c1)C(F)(F)F)nc2-c1ccc(Cl)c(F)c1 [Example 305] | < 500 | < 200
22 | C[C@]1(C(N)=O)COc2c1cc([C@@](O)(CNC(=O)c1cc(F)c3nc(N)sc3c1)C(F)(F)F)nc2-c1ccc(Cl)c(Cl)c1 [Example 306] | < 500 | < 200
23 | C[C@]1(C(N)=O)COc2c1cc([C@@](O)(CNC(=O)c1cc(F)c3nc(N)sc3c1)C(F)(F)F)nc2-c1ccc(Cl)cc1 [Example 307] | < 500 | < 200
24 | C[C@]1(C(N)=O)COc2c1cc([C@@](O)(CNC(=O)c1cc(F)c3nc(N)sc3c1)C(F)(F)F)nc2-c1ccc(F)c(F)c1 [Example 308] | < 500 | < 200
25 | C[C@]1(C(N)=O)COc2c1cc([C@@](O)(CNC(=O)c1cc(F)c3nc(N)sc3c1)C(F)(F)F)nc2-c1ccc(C#N)cc1 [Example 309] | > 500 | < 200
26 | COc1cc(C(=O)NC[C@](O)(c2cc3c(c(-c4ccc(Cl)cc4)n2)OC[C@]3(C)C(N)=O)C(F)(F)F)cc2cc(C(F)(F)F)cnc12 [Example 314] | < 500 | < 200
27 | COc1cc(C(=O)NC[C@](O)(c2cc3c(c(-c4ccc(F)c(F)c4)n2)OC[C@]3(C)C(N)=O)C(F)(F)F)cc2cc(C(F)(F)F)cnc12 [Example 315] | < 500 | < 200
28 | C[C@]1(C(N)=O)COc2c1cc([C@@](O)(CNC(=O)c1cc(OC3CC3)n3nc(C4CC4)cc3c1)C(F)(F)F)nc2-c1ccc(F)cc1 [Example 321] | < 500 | < 200
29 | COc1cc(C(=O)NC[C@](O)(c2cc3c(c(-c4ccc(F)cc4)n2)OC[C@]3(C)C(N)=O)C(F)(F)F)cc2cc(C3CCC3)nn12 [Example 322] | > 500 | < 200
30 | COc1cc(C(=O)NC[C@](O)(c2cc3c(c(-c4ccc(F)cc4)n2)OC[C@]3(C)C(N)=O)C(F)(F)F)cc2cn(C3CCC3)nc12 [Example 323] | > 500 | < 200
31 | COc1cc(C(=O)NC[C@](O)(c2cc3c(c(-c4ccc(F)c(Cl)c4)n2)OC[C@]3(C)C(N)=O)C(F)(F)F)cc2cn(C3CCC3)nc12 [Example 324] | < 500 | < 200
32 | Cc1ccc2cc(C(=O)NC[C@](O)(c3cc4c(c(-c5ccc(F)cc5)n3)OC[C@]4(C)C(N)=O)C(F)(F)F)cc(OC(F)F)c2n1 [Example 327] | > 500 | < 200
33 | [2H]C([2H])([2H])NC(=O)Nc1cc(C(=O)NC[C@](O)(c2cc3c(c(-c4ccc(F)cc4)n2)OC[C@]3(C)C(N)=O)C(F)(F)F)cc2cc(C)cnc12 [Example 329] | < 500 | < 200
34 | COc1cc(C(=O)NC[C@](O)(c2cc3c(c(-c4ccc(F)cc4)n2)OC[C@]3(C)C(N)=O)C(F)(F)F)cc2c1OCO2 [Example 441] | > 500 | < 200
